US11584714B2 (priority 2018, dated 2023)
Counter-ions that a name gives are not always drawn. Like-named read-outs stand apart in the source and are kept apart here.

Tests used:
Assay type in all cases: biochemical
human α-thrombin = human α-thrombin (Homo sapiens (Human), UniProt P00734); assay: Enzymatic assay for thrombin (Boc-VPR-AMC substrate)
MASP-2 (CCP1-CCP2-SP) = MASP-2 (CCP1-CCP2-SP) (Homo sapiens (Human), UniProt O00187); assay: biochemical
mMASP-2 = mMASP-2 (Mus musculus (Mouse), UniProt Q91WP0); assay: Enzymatic inhibition of mMASP-2; conditions: read-out: mMASP-2 Ki
Chain of mMASP-2 (Q91WP0 20-685): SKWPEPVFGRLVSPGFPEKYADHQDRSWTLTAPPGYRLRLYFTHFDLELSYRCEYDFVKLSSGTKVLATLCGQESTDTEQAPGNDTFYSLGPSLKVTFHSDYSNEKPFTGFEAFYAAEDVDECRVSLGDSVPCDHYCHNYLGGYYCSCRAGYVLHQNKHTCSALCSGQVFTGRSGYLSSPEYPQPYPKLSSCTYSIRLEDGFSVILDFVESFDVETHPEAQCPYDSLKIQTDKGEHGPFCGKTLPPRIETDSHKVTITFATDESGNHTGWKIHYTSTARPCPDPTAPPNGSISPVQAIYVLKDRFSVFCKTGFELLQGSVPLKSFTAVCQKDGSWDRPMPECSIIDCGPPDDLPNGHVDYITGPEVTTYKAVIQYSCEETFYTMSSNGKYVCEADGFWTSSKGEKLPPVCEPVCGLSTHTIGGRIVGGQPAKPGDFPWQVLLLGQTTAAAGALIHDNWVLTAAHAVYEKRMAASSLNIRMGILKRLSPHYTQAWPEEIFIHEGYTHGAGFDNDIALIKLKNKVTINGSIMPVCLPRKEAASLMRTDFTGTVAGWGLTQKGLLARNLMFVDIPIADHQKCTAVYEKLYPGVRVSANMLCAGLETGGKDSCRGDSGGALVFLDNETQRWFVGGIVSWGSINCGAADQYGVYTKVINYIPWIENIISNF

[1] = selectivity for MASP-2 inhibition versus thrombin

Chain of MASP-2 (CCP1-CCP2-SP) (O00187 445-686): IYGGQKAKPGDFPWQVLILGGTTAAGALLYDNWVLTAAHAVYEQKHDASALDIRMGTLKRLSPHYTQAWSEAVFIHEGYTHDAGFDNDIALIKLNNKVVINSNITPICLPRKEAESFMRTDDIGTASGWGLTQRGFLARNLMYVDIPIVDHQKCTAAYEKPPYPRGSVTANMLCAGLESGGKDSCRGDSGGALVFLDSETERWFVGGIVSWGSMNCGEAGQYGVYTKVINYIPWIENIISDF

| Compound | Ki (human α-thrombin; read-out: Thrombin Ki) [µM] | MASP-2 vs. thrombin selectivity (MASP-2 (CCP1-CCP2-SP); MASP-2 inhibition versus thrombin) | Ki (MASP-2 (CCP1-CCP2-SP); read-out: MASP-2 Ki) [nM] | Ki (mMASP-2) [nM] | MASP-2 vs. thrombin selectivity (MASP-2 (CCP1-CCP2-SP); [1]) | Ki (MASP-2 (CCP1-CCP2-SP)) [nM] | Ki (human α-thrombin; Thrombin Ki (μM)) [µM] |
| --- | --- | --- | --- | --- | --- | --- | --- |
| C[C@H](NC(=O)[C@@H](CCc1ccccc1)NCc1ccc(N2CCOCC2)cc1)C(=O)NCc1ccc(C(=N)N)cc1 [compound 1149] | < 0.5 | ** (5.0 to 25-fold) | < 500 | < 500 | – | – | – |
| Cc1nc(N)ccc1CNC(=O)[C@H](C)NC(=O)[C@H]1C[C@@H](c2ccccc2)CCN1CCCCCC(=O)O [compound 1412, 6-((2R,4S)-2-(((S)-1-(((6-Amino-2-methylpyridin-3-yl)methyl)amino)-1-oxopropan-2-yl)carbamoyl)-4-phenylpiperidin-1-yl)hexanoic acid Trifluoroacetate salt] | > 25 | – | < 500 | 2500 to 10000 | – | – | – |
| C[C@H](NC(=O)[C@@H](CCc1ccccc1)NCc1ccc(C(N)=O)cc1)C(=O)NCc1ccc(C(=N)N)cc1 [compound 1268, 4-((((R)-1-(((S)-1-((4-Carbamimidoylbenzyl)amino)-1-oxopropan-2-yl)amino)-1-oxo-4-phenylbutan-2-yl)amino)methyl)benzamide] | < 0.5 | – | < 500 | < 500 | * (≥1.0 to <5.0-fold) | – | – |
| Cc1cc(Cl)cc(CNC(=O)[C@H](C)NC(=O)[C@H]2C[C@H](Cc3ccccc3)CN2)c1O [compound 1307, (2R,4S)-4-Benzyl-N-((S)-1-((5-chloro-2-hydroxy-3-methylbenzyl)amino)-1-oxopropan-2-yl)pyrrolidine-2-carboxamide Hydrochloride] | > 25 | – | < 500 | < 500 | **** (≥100-fold) | – | – |
| C[C@H](NC(=O)[C@H]1C[C@H](c2ccccc2)CN1)C(=O)NCc1cnc2sccc2c1 [compound 1471, (2R,4R)—N—((S)-1-oxo-1-((Thieno[2,3-b]pyridin-5-ylmethyl)amino)propan-2-yl)-4-phenylpyrrolidine-2-carboxamide Trifluoroacetate salt] | > 25 | – | – | 2500 to 10000 | – | 2500 to 10000 | – |
| Cc1nc(N)ccc1CNC(=O)[C@H](C)NC(=O)[C@H]1C[C@H](Cc2ccc(-c3ccc(F)cc3CN)cc2)CN1 [compound 1403, (2R,4S)—N—((S)-1-(((6-Amino-2-methylpyridin-3-yl)methyl)amino)-1-oxopropan-2-yl)-4-((2′-(aminomethyl)-4′-fluoro-[1,1′-biphenyl]-4-yl)methyl)pyrrolidine-2-carboxamide] | > 25 | – | < 500 | 500 to 2500 | – | – | – |
| Cc1nc(N)ccc1CNC(=O)[C@H](C)NC(=O)[C@H]1C[C@H](Cc2cccc(C(=O)N3CCC3)c2)CN1 [compound 1420, (2R,4S)—N—((S)-1-(((6-Amino-2-methylpyridin-3-yl)methyl)amino)-1-oxopropan-2-yl)-4-(3-(azetidine-1-carbonyl)benzyl)pyrrolidine-2-carboxamide Di-trifluoroacetate salt] | – | – | < 500 | < 500 | **** (≥100-fold) | – | 2.5 to 10 |
| Cc1nc(N)ccc1CNC(=O)[C@H](C)NC(=O)[C@@H]1C[C@@H](Cc2ccccc2)CN1 [compound 1282, (2S,4R)—N—((S)-1-(((6-Amino-2-methylpyridin-3-yl)methyl)amino)-1-oxopropan-2-yl)-4-benzylpyrrolidine-2-carboxamide] | > 25 | – | – | > 25000 | – | 10000 to 25000 | – |
| Cc1cc(Cl)cc(CNC(=O)[C@H](C)NC(=O)[C@H]2C[C@H](c3ccccc3)CN2)c1 [compound 1333, (2R,4R)—N—((S)-1-((3-Chloro-5-methylbenzyl)amino)-1-oxopropan-2-yl)-4-phenylpyrrolidine-2-carboxamide Hydrochloride] | > 25 | – | – | 10000 to 25000 | – | 2500 to 10000 | – |
| C[C@H](NC(=O)[C@H]1C[C@H](c2ccccc2)CN1)C(=O)NCc1ccc2[nH]cc(Cl)c2c1 [compound 1362, (2R,4R)—N—((S)-1-(((3-Chloro-1H-indol-5-yl)methyl)amino)-1-oxopropan-2-yl)-4-phenylpyrrolidine-2-carboxamide] | – | – | – | 500 to 2500 | * (≥1.0 to <5.0-fold) | 500 to 2500 | 0.5 to 2.5 |
